From PubChem BioAssay (NCI)
“And” between values parts separate entries of the source, which are not always exact repeats. Identical values can stand only once.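 Where inhibition never reached the appropriate level, the endpoint shown equals the highest concentration tested. Otherwise, values were interpolated linearly from a five-concentration, 48-hour dose response in 96-well plates. GI50 is the concentration that inhibits growth by half. TGI denotes the concentration required for complete inhibition of growth.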

Tests used:
Assay in all cases: growth of human tumour cells (NCI), 48 h
786-0 renal = tested on: 786-0 renal
BT-549 breast = tested on: BT-549 breast
HCT-15 colon = tested on: HCT-15 colon
HT29 colon = tested on: HT29 colon
IGROV1 ovarian = tested on: IGROV1 ovarian
LOX IMVI melanoma = tested on: LOX IMVI melanoma
MOLT-4 leukemia = tested on: MOLT-4 leukemia
SK-MEL-5 melanoma = tested on: SK-MEL-5 melanoma
MCF7 breast = tested on: MCF7 breast

Compound	TGI (786-0 renal)	TGI (BT-549 breast)	TGI (HCT-15 colon)	TGI (HT29 colon)	TGI (IGROV1 ovarian)	TGI (LOX IMVI melanoma)	TGI (MOLT-4 leukemia)	TGI (SK-MEL-5 melanoma)	TGI (MCF7 breast)	GI50 (BT-549 breast)	GI50 (HCT-15 colon)	GI50 (HT29 colon)	GI50 (MCF7 breast)	GI50 (IGROV1 ovarian)
O=C(C[N+]12CN3CN(CN(C3)C1)C2)c1ccc(-c2ccccc2)cc1	45.9 µM	71.7 µM	86.3 µM	48.4 µM	66.5 µM	30.6 µM	42.9 µM	30.4 µM						
O=c1cc(NNc2cccc3ccccc23)[nH]c(=O)[nH]1	18.6 µM	30.2 µM	24.8 µM	31.9 µM	29.2 µM	26.7 µM	56.8 µM	29.7 µM	4.74 µM					
S=C(NCc1ccccn1)N/N=C/c1ccccn1	> 86.1 µM		> 100 µM	> 100 µM		33.3 µM	< 0.0357 µM	1.5 µM	> 100 µM					
CC(=O)OCC1OC(OCCCOP(=O)(OCCC#N)OCC2OC(n3cnc4c(N)ncnc43)C(OC(=O)c3ccccc3)C2OC(=O)c2ccccc2)C(OC(C)=O)C(OC(C)=O)C1OC(C)=O (configuration not stated)	> 100 µM	> 100 µM	> 100 µM	> 100 µM	> 100 µM	> 100 µM	> 100 µM	> 100 µM	> 100 µM					
CCOC(=O)c1ccc(N(CCOS(C)(=O)=O)CCOS(C)(=O)=O)cc1		> 100 µM	> 100 µM	> 100 µM	> 100 µM	> 100 µM	48.1 µM	> 100 µM	> 100 µM					
CCCC(=O)Nc1cc(C(=O)N2C[C@H]3C[C@@]34C2=CC(=O)c2[nH]cc(C)c24)n(COC)c1	5.82 µM		17.8 µM and 2.31 µM	4.47 µM and 20.5 µM					6.32 µM and 0.661 µM	0.159 µM	0.242 µM	0.296 µM	0.0139 µM	
CN(C)S(=O)(=O)c1ccc2[nH]c(O)c(C3=Nc4ccccc4C3=O)c2c1	50.3 µM	28.9 µM	> 100 µM	> 100 µM	27.4 µM	> 100 µM	36.2 µM	> 100 µM	> 100 µM					
CCOC(=O)Cc1c(C(=O)OCC)[n+](=O)c2cc(Cl)c(Cl)cc2n1[O-]	3.84 µM	6.53 µM		5.2 µM	2.35 µM	4.65 µM		3.04 µM	13.3 µM					
Cc1c(C#N)c2nnn(-c3cccc(Cl)c3)c(=O)n2c1-c1ccccc1	> 100 µM	> 100 µM	> 100 µM	9.18 µM	> 100 µM	> 100 µM		19.2 µM	35.4 µM					
Nc1nc(Sc2ccc([N+](=O)[O-])c3nonc23)c2[nH]cnc2n1	3.18 µM	18 µM	14.1 µM	20.9 µM	17.1 µM	11.7 µM	1.8 µM	7.8 µM	12 µM					
CC(=O)N[C@@H](Cc1ccc(O)cn1)C(=O)NCc1ccc(Cl)cc1	> 100 µM	> 100 µM	> 100 µM	> 100 µM	> 100 µM	> 100 µM	> 100 µM	> 100 µM	> 100 µM					
CC1OC(OC2C(O)CC(OC3C(O)CC(OC4CCC5(C)C(CCC6C5CCC5(C)C(C7=CC(=O)OC7)C(O)CC65O)C4)OC3C)OC2C)CC(O)C1O (configuration not stated)		0.339 µM	1.58 µM	0.886 µM	9.81 µM	0.235 µM		0.533 µM						
CC(=O)Oc1ccc2cc(Oc3cc(Cl)c(Cl)cc3Cl)c(=O)oc2c1	29 µM	26.7 µM	26.3 µM	30.5 µM	32.1 µM	28.9 µM	30.4 µM	24.1 µM	67.7 µM					
C[C@]12CC[C@H]3[C@@H](CC=C4C[C@@H](O)CC[C@@]43C)[C@@H]1C/C(=C\c1cccnc1)[C@@H]2O	96 µM	48.9 µM	> 100 µM	> 100 µM	> 100 µM	4.46 µM			42.5 µM					
CNC(=O)[C@H](Cc1ccccc1)NC(=O)N(CCC#N)CCN(C(=O)N[C@@H](Cc1ccccc1)C(=O)OC)c1ccccc1	> 100 µM	> 100 µM	> 100 µM	> 100 µM		> 100 µM	> 100 µM	> 100 µM	> 100 µM					
COc1cc2c(c(OC)c1OC)C(=O)c1c(O)cc(C)c(OC)c1C2=O	> 100 µM	> 100 µM	> 100 µM	> 100 µM	> 100 µM	> 100 µM	> 100 µM	> 100 µM	> 100 µM					
CC(C)(C)OC(=O)Cn1ncn(NC(=O)Cc2ccccc2)c1=S	> 10 µM	> 10 µM	> 10 µM	> 10 µM	> 10 µM	> 10 µM	> 10 µM	> 10 µM	> 10 µM					
CCCCCCCCCCCC1N=C(N)N=C(N)N1c1cccc(Br)c1 (configuration not stated)			26.3 µM	1.71 µM	2.58 µM						5.2 µM	0.412 µM		1.14 µM
CCOC(=O)C1=C(O)CC(=O)N=C1N1CCCC1	> 100 µM		> 100 µM	> 100 µM	> 100 µM	> 100 µM	> 100 µM	> 100 µM						
CC1(C)N=C(C(N)=O)c2[nH]cnc2N1	> 100 µM		> 100 µM	> 100 µM	> 100 µM	> 100 µM		> 100 µM	> 100 µM					
COC(=O)CN1CCN(c2cccc3c2CCCC3)CC1	> 100 µM		> 100 µM	65.8 µM	> 100 µM	> 100 µM	> 100 µM	60 µM	94.3 µM					
CN(C)C(=O)C(F)(F)C(c1ccccc1Br)C1C(=O)N(C)C(=O)N(C)C1=O (configuration not stated)	> 100 µM	> 100 µM	> 100 µM			> 100 µM		> 100 µM	> 100 µM					
CC1CC(=O)N(N(C)C)C2(C#N)C(=O)N=C(N)C12C#N (configuration not stated)	> 100 µM		> 100 µM	> 100 µM	> 100 µM	> 100 µM	> 100 µM	> 100 µM	> 100 µM					
C[N+](C)(CCNc1ccc(NCC[N+](C)(C)Cc2ccc([N+](=O)[O-])cc2)c2c1C(=O)c1c(O)ccc(O)c1C2=O)Cc1ccc([N+](=O)[O-])cc1	> 50 µM	> 50 µM	> 50 µM	> 50 µM	> 50 µM	> 50 µM	> 5 µM	> 50 µM						
CCOC(=O)C(C)c1nc2cc(F)c(F)cc2[nH]c1=O (configuration not stated)	> 100 µM	> 100 µM	> 100 µM	> 100 µM		> 100 µM	> 100 µM	> 100 µM	> 100 µM					
